# Data from patent US20240400717A1, “Antibody Binding to CHI3L1 for Treating Cancer” (National Cheng Kung University, priority 2021, published 2024).
# Tested on: MiaPaCa cells
# Experiment: MiaPaCa orthotopic NOD-SCID mice model
# [1] = mAb 5 mg/kg i.v., gemcitabine 50 mg/kg i.p.
# Description: Specifically, experimental design of tumor growth inhibition in vivo. MiaPaCa cells (5×10^6) were injected into pancreas of NOD-SCID mice at Day 0. […] Mice were sacrificed on day 34. […] Since fibrosis and angiogenesis are two major issues during tumor progression, we compared the fibrosis and angiogenesis level within each groups.
smiles,measurement,setting,value
"Nc1ccn([C@@H]2O[C@H](CO)[C@@H](O)C2(F)F)c(=O)n1 [gemcitabine, reference compound]",level of CHI3L1 in intratumoral region and plasma,end of experiment,lower than IgG control group
same,angiogenesis indicated by CD31 expression,[1],decreased in every treatment groups
same,body weight,[1],without significant weight loss
same,tumor size,"mAb 5 mg/kg i.v., gemcitabine 50 mg/kg i.p., Day 7, 14, 21, 28, sacrificed day 34",smaller than IgG control group
